Experimental data as given in PMC7023430, “4-Aminobenzoic Acid Derivatives: Converting Folate Precursor to Antimicrobial and Cytotoxic Agents” (Biomolecules, 2019).
Values after ≈ are worked out from the molar mass of the structure shown. Where two headings read alike, the source gives them in different places.

Key:
[1] = test system: Pseudomonas aeruginosa ATCC 27853, CCM 3955; experiment: Antibacterial microdilution broth method, P. aeruginosa; format: cell-based; details: Pseudomonas aeruginosa, P. aeruginosa
[2] = test system: methicillin-resistant Staphylococcus aureus ATCC 43300, CCM 4750 (MRSA); experiment: Antibacterial microdilution broth method, MRSA; format: cell-based; details: Staphylococcus aureus
[3] = test system: ESBL-positive Klebsiella pneumoniae J 14368/08
[4] = test system: M. kansasii 6509/96 (clinical isolate); experiment: Antimycobacterial micromethod in Šula's medium, M. kansasii 6509/96; format: cell-based; details: Mycobacterium kansasii
[5] = test system: Lichtheimia corymbifera 272; experiment: Antifungal microdilution broth method, L. corymbifera; format: cell-based
In short: (§1)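 Broth microdilution, EUCAST, modified. Medium: RPMI-1640 + L-glutamine + 2% glucose, MOPS pH 7.0; compounds from DMSO, twofold series. Visual MIC, duplicates, ≤1-step discrepancy accepted.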

[6] = test system: Mycobacterium avium 330/88; experiment: Antimycobacterial micromethod in Šula's medium, M. avium; format: cell-based
[7] = test system: Escherichia coli ATCC 25922, CCM 3954; experiment: Antibacterial microdilution broth method, E. coli; format: cell-based; details: Escherichia coli
[8] = test system: Mycobacterium kansasii 235/80; experiment: Antimycobacterial micromethod in Šula's medium, M. kansasii 235/80; format: cell-based
[9] = test system: Candida albicans ATCC 44859; experiment: Antifungal microdilution broth method, C. albicans; format: cell-based
In short: as §1

[10] = test system: HepG2 cells; experiment: Cytotoxicity, CellTiter 96 assay; format: cell-based, human; details: 24 h incubation
Procedure: HepG2, human hepatocellular carcinoma cells (ATCC HB-8065; passage 5–8) purchased from Health Protection Agency Culture Collections (ECACC, Salisbury, UK) were cultured in Minimum Essentials Eagle Medium supplemented with 10% fetal bovine serum, 1% L-glutamine solution and non-essential amino acid solution (Sigma-Aldrich, St. Louis, MO, USA) in a humidified atmosphere containing 5% CO2 at 37 °C. For subculturing, the cells were harvested after trypsin/EDTA (Sigma-Aldrich, St. Louis, USA) treatment at 37 °C. To evaluate cytotoxicity, the cells treated with the tested substances were used as experimental groups whereas untreated HepG2 cells served as control groups.
The cells were seeded in a density of 10 000 cells per well in a 96-well plate. The following day the cells were treated with each of the tested substances dissolved in DMSO (maximal incubation concentration of DMSO was 1% v/v). The tested substances were prepared at different incubation concentrations in triplicates according to their solubility. Simultaneously, the controls representing 100% cell viability, 0% cell viability (the cells treated with 10% DMSO), no cell control and vehiculum controls were also involved in triplicates. After 24 h incubation in a humidified atmosphere containing 5% CO2 at 37 °C, the reagent from the kit CellTiter 96 AQueous One Solution Cell Proliferation Assay (CellTiter 96; Promega, Fitchburg, WI, USA) was added. After 2 h incubation at 37 °C absorbance of samples was recorded at 490 nm (TECAN, Infinita M200, Grödig, Austria). A standard toxicological parameter IC50 was calculated by nonlinear regression from a semilogarithmic plot of incubation concentration versus percentage of absorbance relative to untreated controls using GraphPad Prism software (version 6; GraphPad Software, Inc., La Jolla, CA, USA).
The CellTiter 96 assay used is based on the reduction of tetrazolium dye in living cells to formazan, which is then determined colorimetrically. This reduction is related to availability of NADH or NADPH. The decline in levels of these metabolically important compounds in the cell causes that the production of formazan is reduced. For quantitative comparison of cytotoxicity, the parameter IC50 was used.

[11] = test system: Trichophyton interdigitale 445; experiment: Antifungal microdilution broth method, T. interdigitale; format: cell-based
In short: as §1

[12] = test system: Staphylococcus epidermidis H 6966/08; experiment: Antibacterial microdilution broth method, S. epidermidis; format: cell-based; details: Staphylococcus epidermidis, H6966/08
[13] = test system: Candida glabrata 20/I; experiment: Antifungal microdilution broth method, C. glabrata; format: cell-based; details: Nakaseomyces glabratus
In short: as §1

[14] = test system: Staphylococcus aureus ATCC 29213, CCM 4223; experiment: Antibacterial microdilution broth method, S. aureus; format: cell-based
[15] = test system: Aspergillus fumigatus 231; experiment: Antifungal microdilution broth method, A. fumigatus; format: cell-based
In short: as §1

[16] = test system: Enterococcus faecalis ATCC 29212, CCM 4224; experiment: Antibacterial microdilution broth method, E. faecalis; format: cell-based; details: Enterococcus faecalis
[17] = 24 h incubation, read-out: MIC PA 24 h
[18] = 48 h incubation, read-out: MIC PA 48 h
[19] = 24 h incubation, read-out: MIC MRSA 24 h
[20] = 48 h incubation, read-out: MIC MRSA 48 h
[21] = 168 h, 7 days incubation at 37 °C, read-out: MIC M. kansasii 6509/96 7 d
[22] = 336 h, 14 days incubation at 37 °C, read-out: MIC M. kansasii 6509/96 14 d
[23] = 504 h, 21 days incubation at 37 °C, read-out: MIC M. kansasii 6509/96 21 d
[24] = 330/88, 336 h, 14 days incubation at 37 °C, read-out: MIC M. avium 330/88 14 d
[25] = 330/88, 504 h, 21 days incubation at 37 °C, read-out: MIC M. avium 330/88 21 d
[26] = 24 h incubation, read-out: MIC EC 24 h
[27] = 48 h incubation, read-out: MIC EC 48 h
[28] = 235/80, 168 h, 7 days incubation at 37 °C, read-out: MIC M. kansasii 235/80 7 d
[29] = 235/80, 336 h, 14 days incubation at 37 °C, read-out: MIC M. kansasii 235/80 14 d
[30] = 235/80, 504 h, 21 days incubation at 37 °C, read-out: MIC M. kansasii 235/80 21 d
[31] = ATCC44859, 24 h, read-out: MIC CA 24 h
[32] = ATCC44859, 48 h, read-out: MIC CA 48 h
[33] = S. epidermidis, 24 h incubation, read-out: MIC SE 24 h
[34] = S. epidermidis, 48 h incubation, read-out: MIC SE 48 h
[35] = time not stated, read-out: MIC, S. epidermidis
[36] = 24 h incubation, read-out: MIC SA 24 h
[37] = 48 h incubation, read-out: MIC SA 48 h
[38] = 24 h incubation, read-out: MIC EF 24 h
[39] = 48 h incubation, read-out: MIC EF 48 h

| Structure (SMILES) | MIC [1, 17] | MIC [1, 18] | MIC [2, 19] | MIC [2, 20] | MIC KP-E 24 h [3] | MIC KP-E 48 h [3] | MIC [4, 21] | MIC [4, 22] | MIC [4, 23] | MIC ([5]; 24 h, read-out: MIC LC 24 h) | MIC ([5]; 48 h, read-out: MIC LC 48 h) | MIC [6, 24] | MIC [6, 25] | MIC [7, 26] | MIC [7, 27] | MIC [8, 28] | MIC [8, 29] | MIC [8, 30] | MIC [9, 31] | MIC [9, 32] | further results |
| --- | --- | --- | --- | --- | --- | --- | --- | --- | --- | --- | --- | --- | --- | --- | --- | --- | --- | --- | --- | --- | --- |
| Cc1ccc(O)c(C=Nc2ccc(C(=O)O)cc2)c1 [1g, 4-[(2-Hydroxy-5-methylbenzylidene)amino]benzoic acid] | > 500 µM | > 500 µM | > 500 µM | > 500 µM | >500 µM | >500 µM | 500 µM (≈ 128 µg/mL) | 500 µM (≈ 128 µg/mL) | 1000 µM (≈ 255 µg/mL) | > 125 µM | > 125 µM | > 1000 µM | > 1000 µM | > 500 µM | > 500 µM | 500 µM (≈ 128 µg/mL) | 500 µM (≈ 128 µg/mL) | 500 µM (≈ 128 µg/mL) | > 125 µM | > 125 µM | IC50 [10]: 956 µM; IC50 ([10]; Homo sapiens, HepG2, 24 h): > 500 µM; MIC ([11]; 72 h, read-out: MIC TI 72 h): > 125 µM; MIC ([11]; 120 h, read-out: MIC TI 120 h): > 125 µM; MIC [12, 33]: 250 µM (≈ 63.8 µg/mL); MIC [12, 34]: 250 µM (≈ 63.8 µg/mL); MIC [12, 35]: ≥ 250 µM; MIC ([13]; 24 h, read-out: MIC CG 24 h): > 125 µM; MIC ([13]; 48 h, read-out: MIC CG 48 h): > 125 µM; MIC [14, 36]: > 500 µM; MIC [14, 37]: > 500 µM; MIC ([15]; 24 h, read-out: MIC AF 24 h): > 125 µM; MIC ([15]; 48 h, read-out: MIC AF 48 h): > 125 µM; MIC [16, 38]: > 500 µM; MIC [16, 39]: > 500 µM |
| COc1ccc(O)c(C=Nc2ccc(C(=O)O)cc2)c1 [1h, 4-[(2-Hydroxy-5-methoxybenzylidene)amino]benzoic acid] | > 500 µM | > 500 µM | > 500 µM | > 500 µM | >500 µM | >500 µM | 500 µM (≈ 136 µg/mL) | 500 µM (≈ 136 µg/mL) | 500 µM (≈ 136 µg/mL) | > 500 µM | > 500 µM | 1000 µM (≈ 271 µg/mL) | 1000 µM (≈ 271 µg/mL) | > 500 µM | > 500 µM | 500 µM (≈ 136 µg/mL) | 500 µM (≈ 136 µg/mL) | 500 µM (≈ 136 µg/mL) | 250 µM (≈ 67.8 µg/mL) | 250 µM (≈ 67.8 µg/mL) | IC50 [10]: 530 µM; IC50 ([10]; Homo sapiens, HepG2, 24 h): > 500 µM; MIC ([11]; 72 h, read-out: MIC TI 72 h): > 500 µM; MIC ([11]; 120 h, read-out: MIC TI 120 h): > 500 µM; MIC [12, 33]: 500 µM (≈ 136 µg/mL); MIC [12, 34]: 500 µM (≈ 136 µg/mL); MIC [12, 35]: ≥ 250 µM; MIC ([13]; 24 h, read-out: MIC CG 24 h): 250 µM (≈ 67.8 µg/mL); MIC ([13]; 48 h, read-out: MIC CG 48 h): 250 µM (≈ 67.8 µg/mL); MIC [14, 36]: > 500 µM; MIC [14, 37]: > 500 µM; MIC ([15]; 24 h, read-out: MIC AF 24 h): > 500 µM; MIC ([15]; 48 h, read-out: MIC AF 48 h): > 500 µM; MIC [16, 38]: > 500 µM; MIC [16, 39]: > 500 µM |
